US8231887B2, “Pesticidal compositions” (BASF Corporation, priority 2008, dated 2012)
Several values for one entry are separate records, joined by “and”; a condition that tells them apart may be missing. Equal values may be shown once.

What was measured:
Format in all cases: in vivo, Blattella germanica
cockroaches [1] = experiment: Topical toxicity test of various compounds and/or PD23 mineral oil, dead at 24 h (Example 12); conditions: for Proportion dead at 24 h: calculated proportion; for increase in mortality when combined with PD23 mineral oil: result in words, compared to the other compounds tested
Description: (§1) Toxicity evaluations were performed on 7-14 day old adult male and female German cockroaches (SCJ Strain, S.C. Johnson & Son, Racine, Wis.). Approximately 12 cockroaches were transferred to individual 100×20 mm polystyrene Petri dishes and anesthetized with a 15-25 second exposure to carbon dioxide. The inside edge of each Petri dish was lightly coated with mineral oil plus petroleum jelly in a 1:3 (wt/wt) ratio to minimize escape. Anesthetized cockroaches were positioned with their ventral side up, and a 1 μl drop of the diluted test composition was applied to the area between the meso- and metathoracic legs using a Rainin L-10, 10 μl capacity pipette (Rainin Instrument, LLC, Oakland, Calif.). Five replications of 12 male cockroaches were done for each test composition. Separate tests were done using female cockroaches. Results were evaluated at 24 hours following treatment. Cockroaches were scored as either alive (dorsal side up, active movement when abdomen prodded with dissecting probe) or moribund/dead (dorsal side up and no movement when abdomen prodded or ventral side up and insect unable to right itself).

cockroaches [2] = experiment: Topical toxicity test of alcohols and/or PD23 mineral oil, dead at 24 h (Example 10)
Description: as §1
The compositions comprising alcohol and/or mineral oil are described in Table 13.

cockroaches [3] = experiment: LD50 and LD10 of mineral oils and alcohols, dose-response mortality, probit analysis (Example 9); conditions: 95% CI printed in the line below
Description: In this example, various mineral oils and alcohols were tested to determine, for cockroaches, the LD50 and LD10 for each.
PD23 and PD28 mineral oils were obtained from Sonneborn LLC, Mahwah, N.J. The physical properties of these oils are shown in Table 11. Each mineral oil was tested to determine the LD50 and LD10 (Table 12).
The tested alcohols were obtained from Sigma-Aldrich Corp., St. Louis, Mo. Each alcohol was tested to determine the LD50 and LD10 (Table 12).

[4] = Table 14, composite data of the replicates
[5] = Table 14, composite data, calculated proportion
[6] = Table 13, per replicate of 10-16 treated cockroaches, mg per insect in the label
[7] = compound alone, 0.25 mg, one replicate group per row
[8] = Table 17, composite data, listed as nitromethane (75-52-5) (0.80 mg)

| Compound | Proportion dead at 24 h (cockroaches [1]; Table 17, composite data) | # dead at 24 h (cockroaches [1]; Table 17, composite data) | # dead at 24 h (cockroaches [2]; [4]) | Proportion dead at 24 h (cockroaches [2]; [5]) | also measured |
| --- | --- | --- | --- | --- | --- |
| COCOC [Dimethoxymethane] | 0.000 | – | – | – | pest or weed control at 2 mg (cockroaches [1]; Blattella germanica, topical, 24 h, compound alone, 2.00 mg, read-out: Proportion dead at 24 hr): 0%; # dead at 24 h (cockroaches [1]; compound alone, 2.00 mg): 0; Proportion dead at 24 hr (cockroaches [1]; compound alone, 2.00 mg): 0.000 |
| CCOCC [diethyl ether (60-29-7) (2.0 mg), diethyl ether] | 0.000 | 0 | – | – | – |
| CC(=O)OCC(COC(C)=O)OC(C)=O [Triacetin (102-76-1) (2.0 mg), Triacetin] | 0.033 | 1 | – | – | increase in mortality when combined with PD23 mineral oil (cockroaches [1]): greatest increase in mortality |
| CC(=O)OC(C)C [Isopropyl acetate] | – | – | – | – | # dead at 24 h (cockroaches [1]; compound alone, 1.00 mg): 1 and 2; Proportion dead at 24 hr (cockroaches [1]; compound alone, 1.00 mg): 0.200 |
| CC(=O)OC(C)C [Isopropyl acetate (108-21-4) (1.0 mg), Isopropyl acetate] | 0.150 | 3 | – | – | – |
| O=C1CCCO1 [gamma butyrolactone (96-48-0) (0.25 mg), gamma butyrolactone] | 0.407 | 11 | – | – | increase in mortality when combined with PD23 mineral oil (cockroaches [1]): greatest increase in mortality |
| Hexanes | – | – | – | – | # dead at 24 h (cockroaches [1]; compound alone, 0.80 mg): 1; Proportion dead at 24 hr (cockroaches [1]; compound alone, 0.80 mg): 0.100 |
| C1CCOC1 [Tetrahydrofuran] | – | – | – | – | # dead at 24 h (cockroaches [1]; compound alone, 0.80 mg): 3; Proportion dead at 24 hr (cockroaches [1]; compound alone, 0.80 mg): 0.300 |
| CCCCCCCCCO [Composition 1-nonanol, 1-nonanol] | – | – | 1 | 0.024 | – |
| CO [Methanol] | – | – | 1 | 0.026 | LD10 mg/insect (cockroaches [3]): Estimated at ~3.000 mg/insect; LD50 mg/insect (cockroaches [3]): >7.00 mg/insect; # dead at 24 h (cockroaches [2]; Table 13, per replicate of 10-16 treated cockroaches, mg per insect in the label, listed as methanol (3.0 mg)): 0 (2×) and 1; Proportion dead at 24 h (cockroaches [2]; Table 13, per replicate, listed as methanol (3.0 mg)): 0.000 (2×) and 0.077 |
| CN1CCCC1=O [n-methyl pyrrolidone] | 0.100 | – | – | – | Proportion dead at 24 h (cockroaches [1]; Table 17, composite data, listed as n-methyl pyrrolidone (872-50-4) (0.10 mg)): 0.500; # dead at 24 h (cockroaches [1]; compound alone, 0.05 mg): 1; # dead at 24 h (cockroaches [1]; compound alone, 0.10 mg): 5 |
| CC(=O)CC(C)C [Methyl isobutyl ketone] | 0.048 | 1 | – | – | – |
| CCCCCCCCCCO [Composition 1-decanol, 1-decanol] | – | – | 1 | 0.027 | – |
| C1CCOC1 [Tetrahydrofuran (109-99-9) (0.80 mg), Tetrahydrofuran] | 0.300 | 3 | – | – | – |
| CCCCCCCCCCCO [Composition 1-undecanol, 1-undecanol] | – | – | 4 | 0.105 | – |
| CCC(C)=O [2-butanone] | 0.083 | 3 | – | – | – |
| 1-butanol [Composition 1-butanol] | – | – | 1 | 0.029 | LD10 mg/insect (cockroaches [3]): 0.877 mg/insect; LD50 mg/insect (cockroaches [3]): 1.018 mg/insect; # dead at 24 h (cockroaches [2]; Table 13, per replicate of 10-16 treated cockroaches, mg per insect in the label, listed as 1-butanol (0.8 mg)): 0 (2×) and 1; Proportion dead at 24 h (cockroaches [2]; Table 13, per replicate, listed as 1-butanol (0.8 mg)): 0.000 (2×) and 0.100 |
| CCCCCCO [Composition 1-hexanol, 1-hexanol] | – | – | 3 | 0.083 | Proportion dead at 24 h (cockroaches [2]; Table 13, per replicate): 0.083; # dead at 24 h (cockroaches [2]; [6]): 1 |
| CCCCCC [Hexanes (110-54-3) (0.80 mg), Hexanes] | 0.100 | 1 | – | – | – |
| Cc1ccccc1 [Toluene (108-88-3) (0.90 mg), Toluene] | 0.000 | 0 | – | – | – |
| CCOCC [diethyl ether] | – | – | – | – | # dead at 24 h (cockroaches [1]; compound alone, 2.00 mg): 0; Proportion dead at 24 hr (cockroaches [1]; compound alone, 2.00 mg): 0.000 |
| OCCOCCO [Di(ethylene) glycol (111-46-6) (0.80 mg), Di(ethylene) glycol] | – | 6 | – | – | – |
| CCCCCCCCCCCCCCO [1-tetradecanol] | – | – | 4 | 0.108 | # dead at 24 h (cockroaches [2]; Table 13, per replicate of 10-16 treated cockroaches, mg per insect in the label, listed as 1-tetradecanol (1.00 mg)): 1 and 2; Proportion dead at 24 h (cockroaches [2]; Table 13, per replicate, listed as 1-tetradecanol (1.00 mg)): 0.083 and 0.154 |

| Compound | Proportion dead at 24 h (cockroaches [1]; Table 17, composite data) | # dead at 24 h (cockroaches [1]; Table 17, composite data) | # dead at 24 h (cockroaches [2]; [4]) | Proportion dead at 24 h (cockroaches [2]; [5]) | also measured |
| --- | --- | --- | --- | --- | --- |
| OCCc1ccccc1 [2-phenylethanol] | – | – | 5 | 0.106 | LD10 mg/insect (cockroaches [3]): 0.075 mg/insect |
| CC(=O)CC(C)(C)O [Diacetone alcohol] | – | – | 1 | 0.025 | – |
| O=C1CCCO1 [gamma butyrolactone] | – | – | – | – | # dead at 24 h (cockroaches [1]; [7]): 3 and 5; Proportion dead at 24 hr (cockroaches [1]; [7]): 0.300 and 0.500 |
| CC(Cl)(Cl)Cl [Methyl chloroform] | – | – | – | – | # dead at 24 h (cockroaches [1]; compound alone, 2.00 mg): 1; Proportion dead at 24 hr (cockroaches [1]; compound alone, 2.00 mg): 0.091 and 0.100 |
| c1ccncc1 [Pyridine (110-86-1) (0.10 mg), Pyridine] | 0.032 | 1 | – | – | increase in mortality when combined with PD23 mineral oil (cockroaches [1]): greatest increase in mortality |
| ClC(Cl)Cl [Chloroform-anhydrous (67-66-3) (2.0 mg), Chloroform] | 0.050 | 1 | – | – | – |
| ClCCl [Dichloromethane] | 0.000 | – | – | – | pest or weed control at 1.5 mg (cockroaches [1]; Blattella germanica, topical, 24 h, read-out: Proportion dead at 24 hr): 0%; # dead at 24 h (cockroaches [1]; compound alone, 1.50 mg): 0 |
| CC(C)O [Isopropyl alcohol] | – | – | 0 | 0.000 | Proportion dead at 24 h (cockroaches [2]; Table 13, per replicate): 0.000; # dead at 24 h (cockroaches [2]; [6]): 0 |
| Cc1ccccc1 [Toluene] | – | – | – | – | # dead at 24 h (cockroaches [1]; compound alone, 0.90 mg): 0; Proportion dead at 24 hr (cockroaches [1]; compound alone, 0.90 mg): 0.000 |
| C[N+](=O)[O-] [nitromethane (75-52-5) (0.70 mg), nitromethane] | – | 0 | – | – | Proportion dead at 24 h (cockroaches [1]; [8]): 0.179; # dead at 24 h (cockroaches [1]; [8]): 5; increase in mortality when combined with PD23 mineral oil (cockroaches [1]): greatest increase in mortality |
| CCOCCO [2-ethoxyethanol] | 0.033 | 1 | – | – | increase in mortality when combined with PD23 mineral oil (cockroaches [1]): greatest increase in mortality |
| CCO [Ethanol] | – | – | 1 | 0.027 | – |
| CCCCCCCCO [Composition 1-octanol, 1-octanol] | – | – | 2 | 0.054 | – |
| 2-butanol [Composition 2-butanol] | – | – | 1 | 0.026 | LD10 mg/insect (cockroaches [3]): 0.881 mg/insect; LD50 mg/insect (cockroaches [3]): 1.188 mg/insect; # dead at 24 h (cockroaches [2]; Table 13, per replicate of 10-16 treated cockroaches, mg per insect in the label, listed as 2-butanol (0.8 mg)): 0 (2×) and 1; Proportion dead at 24 h (cockroaches [2]; Table 13, per replicate, listed as 2-butanol (0.8 mg)): 0.000 (2×) and 0.083 |
| Diisopropyl biphenyl | 0.000 | 0 | – | – | – |
| CC(C)CO [isobutyl alcohol] | – | – | 1 | 0.026 | # dead at 24 h (cockroaches [2]; Table 13, per replicate of 10-16 treated cockroaches, mg per insect in the label, listed as isobutyl alcohol (0.50 mg)): 1; Proportion dead at 24 h (cockroaches [2]; Table 13, per replicate, listed as isobutyl alcohol (0.50 mg)): 0.071 |
| CC(=O)c1ccccc1 [Acetophenone (98-86-2) (0.10 mg), Acetophenone] | – | 0 | – | – | increase in mortality when combined with PD23 mineral oil (cockroaches [1]): greatest increase in mortality |
| COC(C)(C)C [Methyl t-butyl ether] | 0.227 | 5 | – | – | # dead at 24 h (cockroaches [1]; compound alone, 2.00 mg): 2 and 3; Proportion dead at 24 hr (cockroaches [1]; compound alone, 2.00 mg): 0.300 |
| CCCCCCCCCCCCO [Composition 1-dodecanol, 1-dodecanol] | – | – | 3 | 0.077 | – |
| CC(Cl)(Cl)Cl [Methyl chloroform (71-55-6) (2.00 mg), Methyl chloroform] | 0.095 | 2 | – | – | – |
| CCCCOCCO [2-butoxyethanol] | – | – | 0 | 0.000 | Proportion dead at 24 h (cockroaches [2]; Table 13, per replicate): 0.000; # dead at 24 h (cockroaches [2]; [6]): 0 |
| CC(C)(C)O [tertiary butyl alcohol] | – | – | 2 | 0.045 | # dead at 24 h (cockroaches [2]; Table 13, per replicate of 10-16 treated cockroaches, mg per insect in the label, listed as t-butyl alcohol (0.5 mg)): 0 (3×) and 2; Proportion dead at 24 h (cockroaches [2]; Table 13, per replicate, listed as t-butyl alcohol (0.5 mg)): 0.000 |
